Article PMC5732813, “Novel piplartine-containing ruthenium complexes: synthesis, cell growth inhibition, apoptosis induction and ROS production on HCT116 cells” (Oncotarget, 2017)
“And” between values parts separate entries of the source, which are not always exact repeats. Equal entries are not always repeated. Where two headings read alike, the source gives them in different places.

How the values were obtained:
[1] = tested on: HSC-3 (human oral squamous cell carcinoma); experiment: Cytotoxic activity, alamar blue assay, HSC-3; type: cell-based; conditions: for more potent than metal-free piplartine: HSC3, IC50 72h
Source text: (§1) HCT116 (human colon carcinoma), HepG2 (human hepatocellular carcinoma), HSC-3 (human oral squamous cell carcinoma), SCC-4 (human oral squamous cell carcinoma), SCC-9 (human oral squamous cell carcinoma), HL-60 (human promyelocytic leukemia), K-562 (human chronic myelogenous leukemia), B16-F10 (murine melanoma), MRC-5 (human lung fibroblast), WT SV40 MEF (wild-type immortalized mouse embryonic fibroblast) and BAD KO SV40 MEF (BAD gene knockout immortalized mouse embryonic fibroblast) cell lines were obtained from the American Type Culture Collection (ATCC, Manassas, VA, USA) and cultured in RPMI-1640 medium (Gibco-BRL, Gaithersburg, MD, USA) with 10% fetal bovine serum (Life, Carlsbad, CA, USA), 2 mM L-glutamine (Vetec Química Fina, Duque de Caxias, RJ, Brazil) and 50 μg/mL gentamycin (Life, Carlsbad, CA, USA). Adherent cells were collected by treatment with 0.25% trypsin EDTA solution (Gibco-BRL, Gaithersburg, MD, USA). All cell lines were cultured in flasks at 37°C in 5% CO2 and sub-cultured every 3-4 days to maintain exponential growth.
(§2) Cell viability was quantified using the alamar blue assay, according to Ahmed et al.. Cells were inserted in 96-well plates for all experiments (7 x 10^4 cells/mL for adherent cells or 3 x 10^5 cells/mL for suspended cells in 100 μL of medium). […] Negative controls received the vehicle that was used for diluting the compounds tested.

[2] = tested on: SCC-4 (human oral squamous cell carcinoma); experiment: Cytotoxic activity, alamar blue assay, SCC-4; type: cell-based; conditions: for more potent than metal-free piplartine: SCC4, IC50 72h
Source text: as §1, §2

[3] = tested on: B16-F10 (murine melanoma); experiment: Cytotoxic activity, alamar blue assay, B16-F10; type: cell-based; conditions: for more potent than metal-free piplartine: B16-F10, IC50 72h
Source text: as §1, §2

[4] = tested on: cancer multicellular spheroids formed from HCT116 cells; experiment: 3D multicellular spheroids culture, alamar blue assay; type: cell-based, human; conditions: for more potent than metal-free piplartine: 3D spheroids of HCT116, IC50 72 h
Description: as §2
HCT116 cells were cultivated in 3D multicellular spheroids. Briefly, 100 μL of a solution of cells (0.5 x 10^6 cells/mL) were inserted in 96-well plate with a cell-repellent surface (Greiner Bio-One, Kremsmünster, Austria) and cultured in RPMI 1640 medium with 10% fetal bovine serum, 2 mM glutamine, 3% matrigel (BD Biosciences, San Jose, CA, EUA) and 50 μg/mL gentamycin at 37°C with 5% CO2. […] Negative control received the vehicle that was used for diluting the compounds tested. In the end of the experiment, morphological changes were examined by light microscopy (Olympus BX41, Tokyo, Japan) using Image-Pro software (Media Cybernetics, Inc. Silver Spring, USA) and the cell viability was determined by alamar blue assay as described above.

HCT116 cells [5] = experiment: Internucleosomal DNA fragmentation and cell cycle distribution (DNA content, flow cytometry); type: cell-based, human
Description: Cells were harvested in a permeabilization solution containing 0.1% triton X-100 (Sigma Chemical Co. St Louis, MO, USA), 2 μg/mL propidium iodide (Sigma Chemical Co. St Louis, MO, USA), 0.1% sodium citrate and 100 μg/mL RNAse (Sigma Chemical Co. St Louis, MO, USA) and incubated in the dark for 15 min at room temperature.

HCT116 cells [6] = conditions: trypan blue
Description: In all experiments, 2 mL of a HCT116 cell solution (7 x 10^4 cells/mL) was inserted in 24-well plates and incubated overnight to allow the cells to adhere to the plate surface. […] The negative control was treated with the vehicle (0.1% of a solution containing 70% sorbitol, 25% tween 80 and 5% water) used for diluting the compounds tested. […] Cell viability was assessed using trypan blue exclusion assay for all experiments.

[7] = tested on: MRC-5 (human lung fibroblast); experiment: Cytotoxic activity, alamar blue assay, MRC-5 non-cancer cells; type: cell-based; conditions: Homo sapiens
Source text: as §1, §2

[8] = tested on: PBMC (human peripheral blood mononuclear cells); experiment: Cytotoxic activity, alamar blue assay, PBMC non-cancer cells; type: cell-based; conditions: Homo sapiens
Description: PBMCs were washed and resuspended at a concentration of 3 x 10^5 cells/mL in RPMI 1640 medium with 20% fetal bovine serum, 2 mM glutamine and 50 μg/mL gentamycin at 37°C with 5% CO2. […] The Research Ethics Committee of the Oswaldo Cruz Foundation (Salvador, Bahia, Brazil) approved the experimental protocol (# 031019/2013). All participants signed a written informed consent to participate in the study.
as §2

calf thymus DNA (ctDNA) = experiment: DNA intercalation assay (ethidium bromide displacement); type: binding; conditions: ctDNA 15 μg/mL, ethidium bromide 1.5 μM; complexes 5, 10 and 20 μM; doxorubicin 10 μM; data not shown
Description: DNA intercalation was assessed by examining the ability of the complexes to displace ethidium bromide from ctDNA (Sigma-Aldrich Co., Saint Louis, MO, USA). Sexplicate assays (100 μL) were conducted in 96-well plates and contained 15 μg/mL ctDNA, 1.5 μM ethidium bromide and 5, 10 and 20 μM of each complexes in saline solution. […] Fluorescence was measured using excitation and emission wavelengths of 320 nm and 600 nm, respectively using the spectraMax Microplate Reader (Molecular Devices, Sunnyvale, CA, EUA).

[9] = tested on: HCT116 (human colon carcinoma); experiment: Cytotoxic activity, alamar blue assay, HCT116; type: cell-based
Source text: as §1, §2

[10] = tested on: HL-60 (human promyelocytic leukemia); experiment: Cytotoxic activity, alamar blue assay, HL-60; type: cell-based
Source text: as §1, §2

HCT116 cells [11] = experiment: Cellular reactive oxygen species levels (DCF-DA); type: cell-based, human; conditions: 1 h, PL 10 μM
Description: The levels of ROS were measured according to previously described using DCF-DA (Sigma-Aldrich Co., Saint Louis, MO, USA). In brief, cells were treated with the complexes for 1 and 3 h. Then, the cells were collected, washed with saline and resuspended in FACS tubes with saline containing 5 μM DCF-DA for 30 min.

HCT116 cells [12] = conditions: HCT116, 24 and 48h; PL 10 μM
Description: (§3) To investigate the mechanisms involved in cytotoxic action of the complexes, a new set of experiments was performed. In all experiments, 2 mL of a HCT116 cell solution (7 x 10^4 cells/mL) was inserted in 24-well plates and incubated overnight to allow the cells to adhere to the plate surface. […] The negative control was treated with the vehicle (0.1% of a solution containing 70% sorbitol, 25% tween 80 and 5% water) used for diluting the compounds tested. […] Cell viability was assessed using trypan blue exclusion assay for all experiments.
For apoptosis detection, we used a FITC Annexin V Apoptosis Detection Kit I (BD Biosciences, San Jose, CA, EUA) and the analysis were performed according to the manufacturer’s instructions. Briefly, the cells treated were collected after the indicated time, washed twice with cold saline and resuspended in 300 μL binding buffer. Then, it was added 5 μL of Annexin V-FITC staining buffer and 5 μL of propidium iodide. The mixture was incubated in the dark at 37°C for 15 min. Cell fluorescence was measured by flow cytometry as described above.
In a new set of experiments, the cells were pre-treated for 1 h with 5 mM NAC, then incubated with the complexes in the established concentration for 48 h. The cells were then trypsinized and the FITC Annexin V Apoptosis Detection assay and trypan blue exclusion assay were conducted as described above.

caspase-3 = experiment: Caspase-3 activation assay (DEVD-pNA, colorimetric); conditions: HCT116, DEVD-pNA, 48h; PL 10 μM
Description: as §3
A caspase-3 colorimetric assay kit (Sigma-Aldrich Co., Saint Louis, MO, USA) was used to investigate caspase-3 activation on complexes-treated HCT116 cells based on the cleavage of DEVD-pNA and the analysis was performed according to the manufacturer’s instructions. Briefly, cells were lysed by incubation with cell lysis buffer on ice for 10 min and then centrifuged. Enzyme reactions were carried out in a 96-well flat-bottom microplate. To each reaction mixture, 5 μL cell lysate was added. Absorbance at 405 nm was measured using the SpectraMax 190 Microplate Reader (Molecular Devices, Sunnyvale, CA, EUA). The results were expressed as specific activity (IU/mg protein) of caspase-3.

HCT116 cells [13] = experiment: Measurement of the mitochondrial transmembrane potential (rhodamine 123); conditions: HCT116, rhodamine 123, 24h; PL 10 μM
Description: as §3
Mitochondrial transmembrane potential was determined by the retention of the dye rhodamine 123 [59]. Cells were incubated with rhodamine 123 (5 μg/mL, Sigma-Aldrich Co., Saint Louis, MO, USA) at 37 °C for 15 min in the dark and washed with saline. The cells were then incubated again in saline at 37 °C for 30 min in the dark and cell fluorescence was determined by flow cytometry as described above.

[14] = 3D spheroids of HCT116, 72 h treatment, alamar blue, read-out: IC50
[15] = HCT116, 1 μM, 24h, mean ± S.E.M.
[16] = HCT116, 1 μM, 48h, mean ± S.E.M.
[17] = HCT116, 10 μM, 24h, mean ± S.E.M.
[18] = HCT116, 10 μM, 48h, mean ± S.E.M.

Compound	more potent than metal-free piplartine [1] [fold]	more potent than metal-free piplartine [2] [fold]	more potent than metal-free piplartine [3] [fold]	IC50 [4, 14] [µM]	more potent than metal-free piplartine [4]	DNA content (%) S (HCT116 cells [5])	reduced the number of viable cells (HCT116 cells [6]; HCT116, 2.5 μM, 24 h) [%]	reduced the number of viable cells (HCT116 cells [6]; HCT116, 2.5 μM, 48 h) [%]	Selectivity index (SI) ([9]; SI = IC50[MRC-5]/IC50[HCT116])	Selectivity index (SI) ([9]; SI = IC50[PBMC]/IC50[HCT116])	Selectivity index (SI) ([1]; SI = IC50[MRC-5]/IC50[HSC-3])	Selectivity index (SI) ([1]; SI = IC50[PBMC]/IC50[HSC-3])	Selectivity index (SI) ([2]; SI = IC50[MRC-5]/IC50[SCC-4])	Selectivity index (SI) ([2]; SI = IC50[PBMC]/IC50[SCC-4])	Selectivity index (SI) ([10]; SI = IC50[MRC-5]/IC50[HL-60])	Selectivity index (SI) ([10]; SI = IC50[PBMC]/IC50[HL-60])	Selectivity index (SI) ([3]; SI = IC50[MRC-5]/IC50[B16-F10])	Selectivity index (SI) ([3]; SI = IC50[PBMC]/IC50[B16-F10])	further results
[Ru(piplartine)(dppb)(bipy)](PF6)2 [Complex 2]	6	3	3	8.3	~2 fold	18.7 ± 1.8% and 15.6 ± 1.8% and 21.2 ± 2.6% and 18.0 ± 1.3%	35.5	55.5											reduced the number of viable cells (HCT116 cells [6]; HCT116, 5 μM, 24 h): 45.8%; reduced the number of viable cells (HCT116 cells [6]; HCT116, 5 μM, 48 h): 66.9%
COc1cccc2c1C(=O)c1c(O)c3c(c(O)c1C2=O)C[C@@](O)(C(=O)CO)C[C@@H]3O[C@H]1C[C@H](N)[C@H](O)[C@H](C)O1 [Doxorubicin]																			IC50 ([3]; Mus musculus, B16-F10, 72h of incubation, alamar blue, with 95% confidence interval): 0.02 µM; IC50 ([7]; MRC5, MRC-5 non-cancer cells, 72h of incubation, alamar blue, with 95% confidence interval, read-out: IC50): 1.3 µM; IC50 ([8]; PBMC non-cancer cells, 72h of incubation, alamar blue, with 95% confidence interval, read-out: IC50): 5.4 µM; IC50 ([4]; Homo sapiens, HCT-116, 3D spheroids of HCT116, 72 h treatment, alamar blue, read-out: IC50): 6.3 µM; DNA content (%) G0/G1 (HCT116 cells [5]; [15]): 22.1 ± 2.4%; DNA content (%) G2/M (HCT116 cells [5]; [15]): 59.0 ± 2.8 %; DNA content (%) Sub-G0/G1 (HCT116 cells [5]; [15]): 5.2 ± 1.4%; DNA content (%) G0/G1 (HCT116 cells [5]; [16]): 15.8 ± 2.0 %; DNA content (%) G2/M (HCT116 cells [5]; [16]): 49.0 ± 5.9 %; DNA content (%) Sub-G0/G1 (HCT116 cells [5]; [16]): 21.8 ± 5.4 %; DNA intercalation (decrease of ethidium bromide fluorescence) (calf thymus DNA (ctDNA)): significantly reduced fluorescence
COc1cc(/C=C/C(=O)N2CCC=CC2=O)cc(OC)c1OC [Piplartine]									2.7	5.3	2.3	4.6	1.1	2.2	1.3	2.6	1.6	3.2	IC50 ([7]; MRC5, 72 h): 17.3 µM; IC50 ([8]; PBMC, 72 h): 34.2 µM; IC50 ([4]; Homo sapiens, HCT-116, 72 h): 22.1 µM; DNA content (%) G0/G1 (HCT116 cells [5]; [17]): 22.7 ± 0.6%; DNA content (%) G2/M (HCT116 cells [5]; [17]): 21.5 ± 2.9%; DNA content (%) S (HCT116 cells [5]; [17]): 21.4 ± 2.3%; DNA content (%) Sub-G0/G1 (HCT116 cells [5]; [17]): 20.3%; DNA content (%) Sub-G0/G1 (HCT116 cells [5]; HCT116, 10 μM, 24h, mean ± S.E.M., listed as PL): 20.3 ± 1.8 %; DNA content (%) G0/G1 (HCT116 cells [5]; [18]): 27.0 ± 2.9 %; DNA content (%) G2/M (HCT116 cells [5]; [18]): 21.9 ± 0.9%; DNA content (%) S (HCT116 cells [5]; [18]): 16.4 ± 2.2%; DNA content (%) Sub-G0/G1 (HCT116 cells [5]; [18]): 33.9%; DNA content (%) Sub-G0/G1 (HCT116 cells [5]; HCT116, 10 μM, 48h, mean ± S.E.M., listed as PL): 33.9 ± 5.8 %; intracellular ROS levels (HCT116 cells [11]): induced increasing oxidative stress; early and late apoptosis (annexin-V/PI) (HCT116 cells [12]): induced increasing in the early and late apoptosis; activation of caspase-3 (caspase-3): activation of caspase-3; mitochondrial depolarization (HCT116 cells [13]): Mitochondrial depolarization
[Ru(piplartine)(dppf)(bipy)](PF6)2 [Complex 1]	12	5	4	7.3	approximately 3 fold	11.5 ± 2.5% and 20.1 ± 1.4% and 13.5 ± 1.5% and 21.9 ± 2.5%	65.4	77.1	2.0	1.1	5.7	3.0	1.1	0.6	1.0	0.5	1.2	0.6	more potent than metal-free piplartine ([9]; HCT116, IC50 72h): 4 fold; more potent than metal-free piplartine ([10]; HL-60, IC50 72h): 4 fold; DNA content (%) G0/G1 (HCT116 cells [5]): 28.6 ± 5.9% and 39.4 ± 1.8% and 30.0 ± 5.8 % and 42.5 ± 1.7%; reduced the number of viable cells (HCT116 cells [6]; HCT116, 1.25 μM, 24 h): 40.2%; reduced the number of viable cells (HCT116 cells [6]; HCT116, 1.25 μM, 48 h): 61.5%
